Assay results reported in ChEMBL document CHEMBL4311972, “Discovery of a benzothiophene-flavonol halting miltefosine and antimonial drug resistance in Leishmania parasites through the application of medicinal chemistry, screening and genomics” (Eur J Med Chem, 2019).
Active and inactive are the calls of the source. The calls are words filed in the database; no cut-off is given here.

How the values were obtained:
[1] = target: T1, Albumin (Bos taurus, UniProt P02769); experiment: Binding affinity to bovine serum albumin in phosphate buffer assessed as increase in emission intensity at 530-550 nm at 5 uM measured at pH 8 at albumin concentration of 12 uM by fluorescence emission spectrum analysis; assay type: ADME; conditions: cattle, isolated protein, pH 8, 5 µM
T1 sequence (P02769 whole entry): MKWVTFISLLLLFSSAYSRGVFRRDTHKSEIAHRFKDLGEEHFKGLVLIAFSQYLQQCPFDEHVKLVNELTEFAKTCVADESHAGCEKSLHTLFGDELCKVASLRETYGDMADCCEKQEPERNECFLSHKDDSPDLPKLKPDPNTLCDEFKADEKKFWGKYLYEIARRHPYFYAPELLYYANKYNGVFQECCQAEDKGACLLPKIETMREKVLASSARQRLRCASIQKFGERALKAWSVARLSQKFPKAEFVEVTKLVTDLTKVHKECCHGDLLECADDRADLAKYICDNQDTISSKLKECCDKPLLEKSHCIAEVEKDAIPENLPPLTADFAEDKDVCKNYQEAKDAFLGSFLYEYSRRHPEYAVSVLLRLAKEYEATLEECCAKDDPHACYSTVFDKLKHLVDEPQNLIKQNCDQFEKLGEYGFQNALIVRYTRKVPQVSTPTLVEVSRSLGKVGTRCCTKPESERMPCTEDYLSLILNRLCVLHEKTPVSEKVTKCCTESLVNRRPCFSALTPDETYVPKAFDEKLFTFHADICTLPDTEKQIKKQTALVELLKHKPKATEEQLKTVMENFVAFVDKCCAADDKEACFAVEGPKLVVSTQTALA

[2] = Stability of the compound in phosphate buffer assessed as compound abundance at 450 nm at 5 uM measured at pH 8 by fluorescence emission spectrum analysis; assay type: physicochemical; conditions: read-out: Stability
[3] = Plasma concentration in syrian hamster infected with Leishmania infantum BCN150 promastigote at 40 mg/kg/day, po for 10 days formulated with 8% v/v DMSO; assay type: ADME, organism-based, Mesocricetus auratus
[4] = Plasma concentration in syrian hamster infected with Leishmania infantum BCN150 promastigote at 40 mg/kg/day, po for 10 days formulated with 30% v/v cyclodextrin; assay type: ADME, organism-based, Mesocricetus auratus
[5] = test system: Leishmania infantum; experiment: Antileishmanial activity against Leishmania infantum amastigotes infected in Syrian hamster assessed as parasite load within liver at 40 mg/kg/day, po for 10 days formulated with 8% v/v DMSO (reference value: 5333333.333 +/- 3011090.611/g); assay type: functional
[6] = Toxicity in Syrian hamster infected with Leishmania infantum BCN150 promastigotes assessed as effect on plasma creatinine level at 40 mg/kg/day, po for 10 days formulated with 8% v/v DMSO; assay type: organism-based, Mesocricetus auratus; conditions: in vivo, 240 h
[7] = test system: Leishmania donovani; experiment: Antileishmanial activity against Leishmania donovani 1SR promastigotes assessed as parasite growth at IC50 concentration incubated with compound for 3 days under selective pressure and selection cycle repeated 10 times for total of 33 days and measured at 3 to 33 days of selection relative to control; assay type: functional
[8] = Selectivity index, ratio of CC50 for human THP1 cells to EC50 for luciferase expressing intracellular amastigote stage of Leishmania infantum infected in human THP1 cells; assay type: toxicity, cell-based; conditions: read-out: Ratio CC50/EC50
[9] = Toxicity in Syrian hamster infected with Leishmania infantum BCN150 promastigotes assessed as effect on AST level at 40 mg/kg/day, po for 10 days formulated with 30 to 50% v/v cyclodextrin measured after the last treatment; assay type: organism-based, Mesocricetus auratus; conditions: in vivo, 240 h
[10] = Toxicity in Syrian hamster infected with Leishmania infantum BCN150 promastigotes assessed as liver lesions at 40 mg/kg/day, po for 10 days formulated with 30 to 50% v/v cyclodextrin measured under necropsy; assay type: organism-based, Mesocricetus auratus; conditions: in vivo, 240 h
[11] = test system: WI-38; experiment: Cytostatic activity against human WI38 cells assessed as reduction in cell growth incubated for 48 hrs by Celltiter-Glo luminescence assay; assay type: cell-based; conditions: wi-38, 48 h
[12] = target: T1, Albumin; experiment: Binding affinity to bovine serum albumin by fluorescence based assay; assay type: ADME
[13] = test system: Leishmania infantum; experiment: Antileishmanial activity against Leishmania infantum amastigotes infected in Syrian hamster assessed as reduction in parasite load at 40 mg/kg/day, po for 10 days formulated with 8% v/v DMSO relative to control; assay type: functional; conditions: 240 h
[14] = Cytotoxicity against human THP1 cells by MTT assay; assay type: cell-based, THP-1
[15] = target: T1, Albumin; experiment: Binding affinity to bovine serum albumin in phosphate buffer assessed as compound lifetime at 530 nm at 5 uM measured at pH 8 by fluorescence emission spectrum analysis; assay type: ADME; conditions: cattle, isolated protein
[16] = test system: Leishmania infantum; experiment: Antileishmanial activity against Leishmania infantum amastigotes infected in Syrian hamster assessed as parasite load within spleen at 40 mg/kg/day, po for 10 days formulated with 30% v/v cyclodextrin (reference value: 9874032.937 +/- 3482270.184/g); assay type: functional
[17] = Toxicity in Syrian hamster infected with Leishmania infantum BCN150 promastigotes assessed as effect on plasma urea level at 40 mg/kg/day, po for 10 days formulated with 8% v/v DMSO; assay type: organism-based, Mesocricetus auratus; conditions: in vivo, 240 h
[18] = test system: Leishmania donovani; experiment: Antileishmanial activity against antimony resistant Leishmania donovani BPK190 promastigotes infected in C57BL/6 mouse bone marrow-derived macrophages assessed as reduction in parasite load at 5 uM treated with compound at 24 hrs post-infection measured after 72 hrs post infection by q-PCR analysis relative to control; assay type: functional
[19] = test system: Leishmania infantum; experiment: Antileishmanial activity against Leishmania infantum amastigotes infected in Syrian hamster assessed as parasite load within liver at 40 mg/kg/day, po for 10 days formulated with 50% v/v cyclodextrin (reference value: 5000000.000 +/- 1673320.053/g); assay type: functional
[20] = Half-life in BALB/c mouse at 20 mg/kg, po measured upto 72 hrs by snapshot method; assay type: ADME, organism-based; conditions: in vivo
[21] = Toxicity in Syrian hamster infected with Leishmania infantum BCN150 promastigotes assessed as liver lesions at 40 mg/kg/day, po for 10 days formulated with 8% v/v DMSO measured under necropsy; assay type: organism-based, Mesocricetus auratus; conditions: in vivo, 240 h
[22] = target: Albumin (Homo sapiens, UniProt P02768); experiment: Binding affinity to human serum albumin by fluorescence based assay; assay type: ADME
Albumin (Homo sapiens, UniProt P02768), sequence (P02768 whole entry): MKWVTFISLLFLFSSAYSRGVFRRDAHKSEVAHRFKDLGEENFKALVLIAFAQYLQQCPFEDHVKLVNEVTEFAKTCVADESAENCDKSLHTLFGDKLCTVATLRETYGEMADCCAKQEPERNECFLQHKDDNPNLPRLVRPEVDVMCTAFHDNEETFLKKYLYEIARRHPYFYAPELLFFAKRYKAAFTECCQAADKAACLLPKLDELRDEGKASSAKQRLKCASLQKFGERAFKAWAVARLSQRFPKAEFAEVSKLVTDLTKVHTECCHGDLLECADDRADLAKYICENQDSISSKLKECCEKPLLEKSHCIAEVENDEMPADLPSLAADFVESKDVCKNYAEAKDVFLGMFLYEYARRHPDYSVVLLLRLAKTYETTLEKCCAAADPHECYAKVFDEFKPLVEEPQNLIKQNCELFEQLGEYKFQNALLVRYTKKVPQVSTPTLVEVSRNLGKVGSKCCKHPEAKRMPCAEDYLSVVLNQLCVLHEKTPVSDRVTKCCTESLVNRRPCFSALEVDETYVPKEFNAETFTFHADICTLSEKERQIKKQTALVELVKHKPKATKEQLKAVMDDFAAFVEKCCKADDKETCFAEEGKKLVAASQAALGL

[23] = test system: Leishmania infantum; experiment: Antileishmanial activity against Leishmania infantum amastigotes infected in Syrian hamster assessed as reduction in parasite load in spleen at 20 mg/kg/day, po for 10 days relative to control; assay type: functional; conditions: 240 h
[24] = test system: Leishmania infantum; experiment: Antileishmanial activity against Leishmania infantum amastigotes infected in Syrian hamster assessed as parasite load within liver at 20 mg/kg/day, po for 10 days (reference value: 5333333.333 +/- 3011090.611/g); assay type: functional
[25] = Toxicity in Syrian hamster infected with Leishmania infantum BCN150 promastigotes assessed as effect on AST level at 20 mg/kg/day, po for 10 days measured after the last treatment; assay type: organism-based, Mesocricetus auratus; conditions: in vivo, 240 h
[26] = test system: Leishmania donovani; experiment: Antileishmanial activity against Leishmania donovani 1SR promastigotes assessed as parasite growth at IC50 concentration incubated with compound for 3 days under selective pressure and selection cycle repeated 10 times for total of 33 days and measured at 3 to 33 days of selection; assay type: functional, organism-based
[27] = test system: Leishmania donovani; experiment: Antileishmanial activity against Leishmania donovani BPK091 promastigotes transfected with Leishmania donovani BPK190 genomic cosmid DNA assessed as parasite growth at IC75 concentration incubated for 3 days under selective pressure and selection cycle repeated for 25 passages and measured at 43 to 78 days of selection relative to control; assay type: functional
[28] = Toxicity in Syrian hamster infected with Leishmania infantum BCN150 promastigotes assessed as effect on ALT level at 20 mg/kg/day, po for 10 days measured after the last treatment; assay type: organism-based, Mesocricetus auratus; conditions: in vivo, 240 h
[29] = test system: Leishmania infantum; experiment: Anti-leishmanial activity against Leishmania infantum BCN150 promastigotes infected in Syrian hamster assessed as decrease in anti-leishmanial IgG level at 20 mg/kg/day, po for 10 days by ELISA; assay type: functional, organism-based

SMILES: COc1ccc2oc(-c3csc4ccccc34)c(O)c(=O)c2c1
- Activity [1]: 50%
- remaining at 5 µM [2]: 90 to 95%
- concentration at 240 h [3]: 44 nM
- concentration at 240 h [4]: 76 nM
- Activity [5]: 4285714.286 g⁻¹
- Activity [6]: Non-Toxic
- Activity [7]: <50%
- selectivity ratio [8]: 17
- Activity [9]: Non-Toxic
- Activity [10]: Non-Toxic
- Activity [11]: Toxic
- Kd [12]: > 12 µM
- inhibition in vivo at 40 mg/kg/day [13]: 25.9%
- CC50 [14]: 25 to 50 µM
- Time [15]: 5.5 nanoseconds
- Activity [16]: 7030915.598 g⁻¹
- Activity [17]: Non-Toxic
- inhibition at 5 µM [18]: 78%
- Activity [19]: 4000000 g⁻¹
- half-life [20]: 46.9 h
- Activity [21]: Non-Toxic
- Kd [22]: < 10 µM

SMILES: CCCCCCCCCCCCCCCCOP(=O)([O-])OCC[N+](C)(C)C [MILTEFOSINE]
- inhibition in vivo at 20 mg/kg/day [23]: 97.3%
- Activity [24]: 1000000 g⁻¹
- Activity [25]: Non-Toxic
- inhibition [26]: inactive
- Activity [27]: >75%
- Activity [28]: Non-Toxic
- inhibition [29]: Active
